# “Also recorded” adds a separate entry of the source.
# Tested on: phospholipase C-γl
# Test: Effect of tyrosine kinase inhibitor on ATP-dependent stimulation of immunocaptured phospholipase C-γl catalytic activity ([3H]PtdIns(4,5)P2 hydrolysis)
# Assay type: biochemical
# Conditions: 50 μM genistein, 20 minutes, 35° C.; enzyme captured from rat hippocampal formation P2 extract; in the presence of CaMKII, PKC and PKA inhibitors
# Description: Anti-phospholipase C-γl antibodies were coated onto biotinylated anti-globulin immobilized on streptavidin at 200 ng of rabbit polyclonal antibody/100 μL per well. Each well was then incubated with 20 μg of rat hippocampal P2 extract overnight, and, subsequently, washed three times (5 minutes each) with room temperature PBS buffer. […]
# Phospholipase C-γl enzyme activity was quantified essentially as described in Weeber et al. (Neurobiology of Learning and Memory 76 (2001) 151-182). […] 300 μL of the supernatant containing the reaction product ([^3H]Ins(1,4,5)P3) was removed and quantified by liquid scintillation spectroscopy. Immune-complex-dependent activity was calculated by subtracting background [^3H]Ins(1,4,5)P3 (release present in normal rabbit IgG antibody control samples) from the activity measured in wells containing anti-phospholipase C-γl antibody. Data were calculated as nanomoles Ins(1,4,5)P3 product formed per minute, or per mg protein, or per minute per mg protein present in the extract from which the enzyme was affinity purified.
# We sought to determine whether the technique that we used for the affinity capture of phospholipase C-γl allowed for the detection of tyrosine kinase(s) that associate with the phospholipase C-γl. […] The wells were then rinsed with 1.25× phospholipase C assay buffer and the catalytic activity of the isozyme was determined. […]
smiles,measurement,value
O=c1c(-c2ccc(O)cc2)coc2cc(O)cc(O)c12 [genistein],ATP-dependent stimulation of phospholipase C-γl catalytic activity,blocks; also recorded: completely inhibited

# — patent US20050118728A1, “Two-layer antibody capture system” (priority 2003, published 2005)
